Results published in BigSolDB 2.1.

Nc1ccc(S(=O)(=O)Nc2ncccn2)cc1
solubility (mole fraction) (in ethanol, 293.15 K): 6.26e-06
solubility (mole fraction) (in ethanol, 298.15 K): 7.74e-06
solubility (mole fraction) (in ethanol, 303.15 K): 9.46e-06
solubility (mole fraction) (in ethanol, 308.15 K): 1.17e-05
solubility (mole fraction) (in ethanol, 313.15 K): 1.38e-05
solubility (mole fraction) (in water, 293.15 K): 3.8e-07
solubility (mole fraction) (in water, 298.15 K): 4.81e-07
solubility (mole fraction) (in water, 303.15 K): 6.49e-07
solubility (mole fraction) (in water, 308.15 K): 8.7e-07
solubility (mole fraction) (in water, 313.15 K): 1.14e-06
